Assay results: patent publication US20210052705A1, “METHOD OF DRUG […] FOR PTH, PTHrP AND RELATED PEPTIDES” (Radius Health, Inc., priority 2011, published 2021)

How the values were obtained:
in vivo = conditions: male, Sprague Dawley, rat; for bioavailability: % F; for AUC(0-t): AUC0-t; for half-life: T1/2
clinical = conditions: female, human, in vivo, LS Mean; for AUC(0-inf): AUC0-inf; for AUC(0-t): AUC0-t
[1] = 9.8 ug, Concentrations of Peptide in Serum
[2] = 20 ug, Concentration of Peptide in Serum, Mean
[3] = 22 ug, Concentration of Peptide in Serum, Mean
[4] = 26.2 ug, Concentration of Peptide in Serum, Mean
[5] = 26.2 ug, Concentrations of Peptide in Serum
[6] = 27 ug, Concentration of Peptide in Serum, Mean
[7] = 27 ug, Concentrations of Peptide in Serum
[8] = 31 ug, Concentration of Peptide in Serum, Mean
[9] = 32 ug, Concentration of Peptide in Serum, Mean
[10] = 32 ug, Concentrations of Peptide in Serum
[11] = 45.6 ug, Concentration of Peptide in Serum, Mean
[12] = 54 ug, Concentrations of Peptide in Serum
[13] = 57.7 ug, Concentration of Peptide in Serum, Mean
[14] = 67.7 ug, Concentration of Peptide in Serum, Mean
[15] = 141.9 ug, Concentration of Peptide in Serum, Mean
[16] = 386.5 ug, Concentration of Peptide in Serum, Mean

bioavailability (in vivo; 9.8 ug): 49%
AUC(0-t) (in vivo; 9.8 ug): 5.72 ng·h/mL
Cmax (in vivo; 9.8 ug, Cmax): 12 ng/mL
level at 5 min (in vivo; [1]): 12 ng/mL
level at 0.25 h (in vivo; [1]): 9.65 ng/mL
level at 0.5 h (in vivo; [1]): 4.96 ng/mL
level at 0.75 h (in vivo; [1]): 2.07 ng/mL
level at 1 h (in vivo; [1]): 1.47 ng/mL
level at 1.5 h (in vivo; [1]): 0.62 ng/mL
level at 2 h (in vivo; [1]): 0.38 ng/mL
half-life (in vivo; 9.8 ug): 22 min
Tmax (in vivo; 9.8 ug): 5 min
bioavailability (in vivo; 20 ug): 47%
AUC(0-t) (in vivo; 20 ug): 9.6 ng·h/mL
Cmax (in vivo; 20 ug, Cmax): 11.9 ng/mL
level at 5 min (in vivo; [2]): 9.34 ng/mL
level at 0.25 h (in vivo; [2]): 11.9 ng/mL
level at 0.5 h (in vivo; [2]): 6.4 ng/mL
level at 0.75 h (in vivo; [2]): 7.12 ng/mL
level at 1.5 h (in vivo; [2]): 3.14 ng/mL
half-life (in vivo; 20 ug): 43 min
Tmax (in vivo; 20 ug): 15 min
bioavailability (in vivo; 20 ug/kg): 69%
AUC(0-t) (in vivo; 20 ug/kg): 2.77 ng·h/mL
Cmax (in vivo; 20 ug/kg, Cmax): 7.29 ng/mL
Cmax (in vivo; 20 ug/kg, Cmax (20 μg/kg Dose)): 7.29 ng/mL
half-life (in vivo; 20 ug/kg): 18 min
Tmax (in vivo; 20 ug/kg): 10 min
bioavailability (in vivo; 22 ug): 36%
AUC(0-t) (in vivo; 22 ug): 7.75 ng·h/mL
Cmax (in vivo; 22 ug, Cmax): 17.1 ng/mL
level at 5 min (in vivo; [3]): 17.1 ng/mL
level at 0.25 h (in vivo; [3]): 13.2 ng/mL
level at 0.5 h (in vivo; [3]): 6.46 ng/mL
level at 0.75 h (in vivo; [3]): 3.35 ng/mL
level at 1.5 h (in vivo; [3]): 0.8 ng/mL
half-life (in vivo; 22 ug): 19 min
Tmax (in vivo; 22 ug): 5 min
bioavailability (in vivo; 26.2 ug): 101%
AUC(0-t) (in vivo; 26.2 ug): 24.1 ng·h/mL
Cmax (in vivo; 26.2 ug, Cmax): 44 ng/mL
level at 5 min (in vivo; [4]): 34.6 ng/mL
level at 0.25 h (in vivo; [4]): 44 ng/mL
level at 0.5 h (in vivo; [4]): 17.3 ng/mL
level at 0.75 h (in vivo; [4]): 13.8 ng/mL
level at 1.5 h (in vivo; [4]): 2.22 ng/mL
level at 5 min (in vivo; [5]): 41.1 ng/mL
level at 10 min (in vivo; [5]): 26.7 ng/mL
level at 0.25 h (in vivo; [5]): 42.8 ng/mL
level at 0.5 h (in vivo; [5]): 17.4 ng/mL
level at 0.75 h (in vivo; [5]): 12.5 ng/mL
half-life (in vivo; 26.2 ug): 18 min
Tmax (in vivo; 26.2 ug): 15 min
AUC(0-t) (in vivo; 27 ug): 17 ng·h/mL
Cmax (in vivo; 27 ug, Cmax): 31 ng/mL
level at 5 min (in vivo; [6]): 32.6 ng/mL
level at 0.25 h (in vivo; [6]): 31 ng/mL
level at 0.5 h (in vivo; [6]): 18.1 ng/mL
level at 5 min (in vivo; 27 ug, Concentration of Peptide in Serum, individual rat): 28.2 ng/mL
level at 5 min (in vivo; [7]): 27.4 ng/mL
level at 0.25 h (in vivo; [7]): 29.7 ng/mL
level at 0.5 h (in vivo; [7]): 12.2 ng/mL
level at 0.75 h (in vivo; [7]): 9.1 ng/mL
half-life (in vivo; 27 ug): 20 min
Tmax (in vivo; 27 ug): 15 min
bioavailability (in vivo; 31 ug): 42%
AUC(0-t) (in vivo; 31 ug): 12.5 ng·h/mL
Cmax (in vivo; 31 ug, Cmax): 23.6 ng/mL
level at 5 min (in vivo; [8]): 20.3 ng/mL
level at 0.25 h (in vivo; [8]): 23.6 ng/mL
level at 0.5 h (in vivo; [8]): 12.5 ng/mL
level at 0.75 h (in vivo; [8]): 4.73 ng/mL
level at 1.5 h (in vivo; [8]): 1.04 ng/mL
half-life (in vivo; 31 ug): 17 min
Tmax (in vivo; 31 ug): 15 min
bioavailability (in vivo; 32 ug): 102%
AUC(0-t) (in vivo; 32 ug): 27.4 ng·h/mL
Cmax (in vivo; 32 ug, Cmax): 49.2 ng/mL
level at 5 min (in vivo; [9]): 45.2 ng/mL
level at 0.25 h (in vivo; [9]): 49.2 ng/mL
level at 0.5 h (in vivo; [9]): 18.9 ng/mL
level at 0.75 h (in vivo; [9]): 13.6 ng/mL
level at 1.5 h (in vivo; [9]): 5.03 ng/mL
level at 5 min (in vivo; [10]): 25.1 ng/mL
level at 10 min (in vivo; [10]): 34.4 ng/mL
level at 0.25 h (in vivo; [10]): 34 ng/mL
level at 0.5 h (in vivo; [10]): 17.8 ng/mL
level at 0.75 h (in vivo; [10]): 12.7 ng/mL
half-life (in vivo; 32 ug): 25 min
Tmax (in vivo; 32 ug): 15 min
bioavailability (in vivo; 45.6 ug): 108%
AUC(0-t) (in vivo; 45.6 ug): 48.7 ng·h/mL
Cmax (in vivo; 45.6 ug, Cmax): 88.2 ng/mL
level at 5 min (in vivo; [11]): 88.2 ng/mL
level at 0.25 h (in vivo; [11]): 76.1 ng/mL
level at 0.5 h (in vivo; [11]): 36.1 ng/mL
level at 0.75 h (in vivo; [11]): 29.3 ng/mL
level at 1.5 h (in vivo; [11]): 4.79 ng/mL
half-life (in vivo; 45.6 ug): 20 min
Tmax (in vivo; 45.6 ug): 5 min
bioavailability (in vivo; 54 ug): 37%
AUC(0-t) (in vivo; 54 ug): 23 ng·h/mL
Cmax (in vivo; 54 ug, Cmax): 49.8 ng/mL
level at 5 min (in vivo; [12]): 16.5 ng/mL
level at 0.25 h (in vivo; [12]): 49.8 ng/mL
level at 0.5 h (in vivo; [12]): 17.1 ng/mL
level at 0.75 h (in vivo; [12]): 9.37 ng/mL
level at 1 h (in vivo; [12]): 7.75 ng/mL
half-life (in vivo; 54 ug): 24 min
Tmax (in vivo; 54 ug): 15 min
bioavailability (in vivo; 57.7 ug): 82%
AUC(0-t) (in vivo; 57.7 ug): 41.8 ng·h/mL
Cmax (in vivo; 57.7 ug, Cmax): 60.8 ng/mL
level at 5 min (in vivo; [13]): 43.1 ng/mL
level at 0.25 h (in vivo; [13]): 60.8 ng/mL
level at 0.5 h (in vivo; [13]): 40.1 ng/mL
level at 0.75 h (in vivo; [13]): 28.1 ng/mL
level at 1.5 h (in vivo; [13]): 3.72 ng/mL
half-life (in vivo; 57.7 ug): 18 min
Tmax (in vivo; 57.7 ug): 15 min
bioavailability (in vivo; 67.7 ug): 74%
AUC(0-t) (in vivo; 67.7 ug): 48.2 ng·h/mL
Cmax (in vivo; 67.7 ug, Cmax): 82.7 ng/mL
level at 5 min (in vivo; [14]): 64.9 ng/mL
level at 0.25 h (in vivo; [14]): 82.7 ng/mL
level at 0.5 h (in vivo; [14]): 51.3 ng/mL
level at 0.75 h (in vivo; [14]): 19.7 ng/mL
level at 1.5 h (in vivo; [14]): 7.6 ng/mL
half-life (in vivo; 67.7 ug): 22 min
Tmax (in vivo; 67.7 ug): 15 min
AUC(0-t) (in vivo; 141.9 ug): 173 ng·h/mL
Cmax (in vivo; 141.9 ug, Cmax): 230 ng/mL
level at 5 min (in vivo; [15]): 186 ng/mL
level at 0.25 h (in vivo; [15]): 230 ng/mL
level at 0.5 h (in vivo; [15]): 219 ng/mL
level at 0.75 h (in vivo; [15]): 91.8 ng/mL
level at 1.5 h (in vivo; [15]): 23.7 ng/mL
half-life (in vivo; 141.9 ug): 21 min
Tmax (in vivo; 141.9 ug): 15 min
bioavailability (in vivo; 386.5 ug): 22%
AUC(0-t) (in vivo; 386.5 ug): 75.5 ng·h/mL
Cmax (in vivo; 386.5 ug, Cmax): 118 ng/mL
level at 5 min (in vivo; [16]): 97.5 ng/mL
level at 0.25 h (in vivo; [16]): 133 ng/mL
level at 0.5 h (in vivo; [16]): 75.4 ng/mL
level at 0.75 h (in vivo; [16]): 42.2 ng/mL
level at 1.5 h (in vivo; [16]): 7.53 ng/mL
half-life (in vivo; 386.5 ug): 18 min
Tmax (in vivo; 386.5 ug): 15 min
AUC(0-inf) (clinical; 100 ug): 0.0885 ng·h/mL
AUC(0-t) (clinical; 100 ug): 0.112 ng·h/mL
Cmax (clinical; 100 ug): 0.366 ng/mL
AUC(0-inf) (clinical; 150 ug): 0.119 ng·h/mL
AUC(0-t) (clinical; 150 ug): 0.107 ng·h/mL
Cmax (clinical; 150 ug): 0.315 ng/mL
AUC(0-inf) (clinical; 200 ug): 0.11 ng·h/mL
AUC(0-t) (clinical; 200 ug): 0.0975 ng·h/mL
Cmax (clinical; 200 ug): 0.337 ng/mL
Compound: CC[C@H](C)[C@H](NC(=O)[C@H](CO)NC(=O)[C@H](CCCCN)NC(=O)CNC(=O)[C@H](CCCCN)NC(=O)[C@H](CC(=O)O)NC(=O)[C@H](Cc1cnc[nH]1)NC(=O)[C@H](CC(C)C)NC(=O)[C@H](CC(C)C)NC(=O)[C@H](CCC(N)=O)NC(=O)[C@H](Cc1cnc[nH]1)NC(=O)[C@H](CCC(=O)O)NC(=O)[C@H](CO)NC(=O)[C@@H](NC(=O)[C@H](C)N)C(C)C)C(=O)N[C@@H](CCC(N)=O)C(=O)N[C@@H](CC(=O)O)C(=O)N[C@@H](CC(C)C)C(=O)N[C@@H](CCCNC(=N)N)C(=O)N[C@@H](CCCNC(=N)N)C(=O)N[C@@H](CCCNC(=N)N)C(=O)N[C@@H](CCC(=O)O)C(=O)N[C@@H](CC(C)C)C(=O)N[C@@H](CC(C)C)C(=O)N[C@@H](CCC(=O)O)C(=O)N[C@@H](CCCCN)C(=O)N[C@@H](CC(C)C)C(=O)N[C@@H](CC(C)C)C(=O)NC(C)(C)C(=O)N[C@@H](CCCCN)C(=O)N[C@@H](CC(C)C)C(=O)N[C@@H](Cc1cnc[nH]1)C(=O)N[C@H](C(=O)N[C@@H](C)C(N)=O)[C@@H](C)O [Peptide]
